# According to patent US10550115B2, “1, 4, 8-triazaphenanthrene derivatives for the treatment of neurodegenerative disorders” (Institut Du Cerveau et de la Moëlle Epiniere, priority 2015, dated 2020):
# Experiments:
# [1] = test system: dopaminergic (TH+) neurons derived from primary cultures of embryonic ventral mesencephalon; experiment: Spontaneous degeneration of dopaminergic neurons in primary cultures of embryonic ventral mesencephalon, TH+ neuron count at DIV 10; format: cell-based; settings: for viability at 0.1 µM / viability at 1 µM / viability at 10 µM: Neuron, 240 h, read-out: TH+ neurons, % relative to the control ± standard error; for Neuroprotective activity, in words: survival percentage at 10 μM almost equal to that induced by db-cAMP at 1 mM
# Description: The compounds of the invention were tested in a model of spontaneous degeneration of dopaminergic neurons derived from primary cultures of embryonic ventral mesencephalon according to the protocol described in the article by S. Guerreiro et a1. (2008). The primary cultures of embryonic ventral mesencephalon thus obtained are mixed cultures containing about 50% neuronal cells and 50% glial cells. Among the neuronal cells, dopaminergic neurons make up 3% of the total neurons, most of the neurons derived from these cultures being GABAergic. Concerning the glial cells, they mainly consist of astrocytes (>95% of the glial cells). These cultures are characterized by spontaneous, progressive and selective death of dopaminergic neurons as a result of a mechanism involving immature astrocytes and calcium dyshomeostasis (E. Rousseau et a1. (2013), D. Toulorge et a1. (2011)). The neuroprotective effect of the compounds of the invention was evaluated by counting dopaminergic (TH^+) neurons stained by tyrosine hydroxylase (TH) immunohistochemistry after 10 days of culture (DIV 10).
# [2] = In vivo study of BBB crossing, HPLC-MS/MS of plasma and brain after IV injection; set-up: species or system CD-1 mice
# Description: The goal of this study is to confirm, by HPLC coupled to mass spectrometry, the presence of compound Iac in the brain parenchyma after sub-chronic intravenous treatment in mice.
# The study is performed with CD-1 mice.
# A 0.5 mg/mL solution of compound Iac is prepared in physiological saline containing 10% Cremophor EL®. The same dose of this solution is administered intravenously to 6 mice (2 μL/g).
# After 5 min, 3 mice are sacrificed. After 30 min, the other 3 mice are sacrificed.
# Blood is drawn, and the plasma is separated by centrifugation. The brain is harvested after intracardiac perfusion. The samples are frozen and stored at −80° C. before treatment.
# Plasma: 400 μL of each plasma sample is mixed with 1 mL of acetonitrile to precipitate proteins and extract compound Iac.
# Brain: Each brain is ground in 400 μL of physiological saline. 800 μL of acetonitrile is added in order to extract compound Iac.
# The treated samples are vortexed for 3 minutes and then placed in a sonicator again for 3 minutes. The precipitated proteins and the solid residues are sedimented by centrifugation (15,000 g, 5 minutes at 4° C.). The supernatants are transferred to a microplate to be analysed by HPLC-MS/MS.
# Samples are analysed with the method described below, with detection and quantification, based on peak area, being performed by HPLC-MS/MS in MRM mode.
# For the calculation of log [brain]/[plasma] to determine blood-brain barrier crossing, the mean plasma volume of a mouse is evaluated at 1.5 mL.
# [3] = test system: mouse model of Parkinson's disease treated with MPTP; experiment: MPTP mouse model of Parkinson's disease: striatum dopamine levels and dopamine turnover (HPLC, electrochemical detection); format: in vivo; settings: MPTP mice
# Description: (§1) The potential neuroprotective effects of Iac were evaluated by measuring striatum dopamine levels and dopamine turnover in the mouse model of Parkinson's disease treated with MPTP (1-methyl-4-phenyl-1,2,3,6-tetrahydropyridine), and by evaluating the number of dopaminergic neurons saved in the substantia nigra. Mice were treated with Iac (50 and 100 mg/kg, p.o., in 1% carboxymethyl cellulose and 0.5% Tween 80) for 11 consecutive days. MPTP (20 mg/kg; intraperitoneal route), or saline solution for the controls, was administered on treatment days 4 to 8. All mice were killed on day 12 following final administration of the treatment, then the striatal tissue was dissected for analysis. The effect of MPTP treatment on striatum dopamine depletion was analysed by high-pressure liquid chromatography (HPLC) in combination with electrochemical detection for measurement of levels of dopamine monoamine (DA), 3,4-dihydroxyphenylacetic acid (DOPAC), and homovanillic acid (HVA).
# Aqueous solubility = format: physicochemical; settings: aqueous medium (not further specified)
# [4] = test system: dopaminergic neurons of the substantia nigra; experiment: MPTP mouse model of Parkinson's disease: survival of TH+ dopaminergic neurons in the substantia nigra; format: in vivo; settings: MPTP/Iac mice
# Description: as §1
# At the dose of 2×25 mg/kg/d (par os), the near-total survival of TH^+ neurons was observed. Indeed, in the group of mice treated with MPTP/Iac, survival was measured at 93±4% relative to the controls.
# [5] = 50 mg/kg p.o., 11 consecutive days
# [6] = 100 mg/kg p.o., 11 consecutive days
Structure (SMILES),viability at 0.1 µM [1] [%],viability at 1 µM [1] [%],viability at 10 µM [1] [%],"Neuroprotective activity, in words [1]",other results
C#Cc1cnc2ccc3ncccc3c2n1 [Iak],38.2 ± 2.1,40.7 ± 2.6,7 ± 1.3,–,–
c1ccc2ncc(-c3cnc4ccc5ncccc5c4n3)cc2c1 [Iam],27.6 ± 2,46.7 ± 2.7,97.3 ± 3.6,particularly high activity,–
c1ccc2cc(-c3cnc4ccc5ncccc5c4n3)ccc2c1 [Iaj],28.9 ± 1.8,42.8 ± 2.1,94.9 ± 3.5,particularly high activity,–
c1cnc2ccc3nccnc3c2c1 [Iaa],25.7 ± 1.6,26.2 ± 1.7,30.6 ± 2.3,–,–
"c1ccc(-c2cnc3ccc4ncccc4c3n2)cc1 [Iac, 3-phenyl-1,4,8-triazaphenanthrene]",46.6 ± 2.8,64.7 ± 2.9,91 ± 3.7,particularly high activity,"Amount (nmol/brain) ([2]; 5 min after IV injection of 1 mg/kg, mice): 5.19 ± 0.25 nmol/brain; Amount (nmol/brain) ([2]; 30 min after IV injection of 1 mg/kg, mice): 0.50 ± 0.07 nmol/brain; Kp at 5 min ([2]; CD-1, brain and plasma, 5 min after IV injection of 1 mg/kg, mean plasma volume of a mouse evaluated at 1.5 mL, read-out: Log [brain]/[plasma]): 0.15 ± 0.05; Kp at 30 min ([2]; CD-1, brain and plasma, 30 min after IV injection of 1 mg/kg, mean plasma volume of a mouse evaluated at 1.5 mL, read-out: Log [brain]/[plasma]): 0.02 ± 0.1; concentration at 5 min ([2]; CD-1, mouse, plasma, 5 min after IV injection of 1 mg/kg, mice): 2470 ± 240 nM; concentration at 30 min ([2]; CD-1, mouse, plasma, 30 min after IV injection of 1 mg/kg, mice): 320 ± 50 nM; Blood-brain barrier crossing in vivo, in words ([2]; after intravenous administration): able to cross the BBB; Decrease in the (DOPAC+HVA)/DA ratio [3, 5]: 30%; Increase of striatum DA levels [3, 5]: 64%; Decrease in the (DOPAC+HVA)/DA ratio [3, 6]: 28%; Increase of striatum DA levels [3, 6]: 78%; Increase of striatum HVA levels [3, 6]: 25%; Effect on DOPAC levels ([3]; 50 and 100 mg/kg p.o.): no significant effect; Activity (concentration showing neuroprotective activity in vitro) ([1]; in vitro): 1 µM; Concentration for optimal neuroprotective activity ([1]; in vitro): 10 µM; solubility (Aqueous solubility): < 10 µg/mL; Survival of TH+ neurons relative to the controls ([4]; 2×25 mg/kg/d per os): 93±4%; Dopaminergic neuron survival relative to the controls ([4]; 2×50 mg/kg/d per os): 81±4%"
Fc1ccc(-c2cnc3ccc4ncccc4c3n2)cc1 [Iah],24.4 ± 1.4,32.8 ± 1.8,42.8 ± 2.2,–,–
COc1cc(-c2cnc3ccc4ncccc4c3n2)cc(OC)c1OC [Iaf],27.7 ± 1.6,46.8 ± 2.3,70.8 ± 3.5,–,–
Cc1nc2ccc3ncccc3c2nc1-c1ccc2ccccc2c1 [Ibj],58.1 ± 2.8,59.2 ± 2.2,67.3 ± 2.5,–,–
Oc1cccc(-c2cnc3ccc4ncccc4c3n2)c1 [Iae],24.7 ± 1.6,47.7 ± 2.6,99.3 ± 4.4,particularly high activity,–
Clc1cnc2ccc3ncccc3c2n1 [Iad],27.4 ± 1.6,26.5 ± 1.6,33.8 ± 1.8,–,–
c1cncc(-c2cnc3ccc4ncccc4c3n2)c1 [Iag],31.4 ± 1.7,48.3 ± 2.4,96.6 ± 4.5,particularly high activity,–
